According to patent US20090305244A1, “Selection, Propagation and Use of Mosaic Aneuploid Stem Cells” (The Scripps Research Institute, priority 2005, published 2009):
Entries after “also recorded” stand apart in the source; their conditions may differ.

What was measured:
[1] = system: Mouse ESC; experiment: Chromosome counts of ESCs treated with taxol during PA6 co-culture differentiation; format: cell-based; settings: FIG. 3
Text: (§1) A key attribute of HESCs is their ultimate ability to differentiate into normal, mature cells. There is ample evidence that the differentiation of ES cells can be manipulated to give rise to enriched populations of neuronal cells. Stromal PA6 cells, when used as feeders, promote neural differentiation by inducing mouse ES colonies to become Tuj-1-positive and with robust neuritogenesis (Kawasaki et al., 2000). To examine the differentiation potential of anueploid vs. euploid cells, mammalian ESCs were treated with (aneuploid) or without (euploid) taxol and were examined for their ability to differentiate into neurons when cocultured with PA6 cells. Following 1 week of differentiation, 55% of taxol treated cells had gained chromosomes (FIG. 3).
(§2) Mouse ESC were co-cultured with PA6 cells (Kawasaki et al., 2002) for 1 week under differentiation conditions (DMEM/F12 Glutamax (Gibco, Carlsbad, Calif.), 10% “KNOCKOUT” serum replacement (Gibco), 0.1 mM non-essential aminoacids (Gibco) and 0.1 mM β-mercaptoethanol (Gibco). Cells were treated with taxol (Sigma) at a concentration of 2.5 nM.
HESC Chromosome spreads were obtained by standard protocols (Barch et al., 1997; Rehen et al., 2001). […]
For each sample, 40 metaphase spreads were captured and analyzed by SKY and 70 metaphase spreads counterstained with DAPI were captured for aneuploidy quantification.

[2] = system: Mouse ESC; experiment: Neuronal differentiation of ESCs co-cultured with PA6 cells (tuj1 staining); format: cell-based; settings: taxol 2.5 nM versus without taxol; PA6 co-culture 1 week; FIG. 4
Text: as §1, §2
Immunofluorescence staining was performed as previously described (Gage et al., 1995), using α-β-tubulin-III (Tuj-1; 1/1000, Covance). Secondary antibodies were purchased from Jackson ImmunoResearch.

CC(=O)O[C@H]1C(=O)[C@@]2(C)[C@H]([C@H](OC(=O)c3ccccc3)[C@]3(O)C[C@H](OC(=O)[C@H](O)[C@@H](NC(=O)c4ccccc4)c4ccccc4)C(C)=C1C3(C)C)[C@]1(OC(C)=O)CO[C@@H]1C[C@@H]2O [taxol]
induction of aneuploidy (chromosome counts) ([1]; ESCs on PA6 cells treated with taxol for 6 days): induces aneuploidy, specifically hyperploidy
taxol treated cells that had gained chromosomes ([1]; taxol 2.5 nM, following 1 week of differentiation on PA6 cells): 55%
number of neuronally differentiated colonies (tuj1 staining) / neuronal differentiation potential [2]: significantly reduces neuronal differentiation potential; also recorded: significant decrease
